According to article PMC12152189, “Structure of a stripped-down and tuned-up far-red phycobilisome” (Communications Biology, 2025):

Tests used:
Assay in all cases: cryo-EM structure, […] Å
Type in all cases: binding
ApcF2 (in FR-APC) = molecular target: T1, ApcF2 (in FR-APC) (Chroococcidiopsis thermalis, UniProt K9TY40); settings: non-covalent (no Cys linkage); ZZZ,ssa; Arg77 and Arg84 contact propionates; pH 6.5
T1 construct: gene Chro_1766; native purification from far-red-grown cells; intact bicylindrical FR-APC; heterodimer with ApcE2; with Far-red phycobilisome core-membrane linker protein ApcE2 (phycobiliprotein ApcE)
T1 sequence (K9TY40 1-169): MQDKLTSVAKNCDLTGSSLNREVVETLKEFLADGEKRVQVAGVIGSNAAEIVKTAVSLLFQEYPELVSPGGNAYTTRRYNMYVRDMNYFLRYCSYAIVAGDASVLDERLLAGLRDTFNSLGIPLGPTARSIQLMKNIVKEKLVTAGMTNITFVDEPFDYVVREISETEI
T1 sequence (K9TUP3 1-780 partner): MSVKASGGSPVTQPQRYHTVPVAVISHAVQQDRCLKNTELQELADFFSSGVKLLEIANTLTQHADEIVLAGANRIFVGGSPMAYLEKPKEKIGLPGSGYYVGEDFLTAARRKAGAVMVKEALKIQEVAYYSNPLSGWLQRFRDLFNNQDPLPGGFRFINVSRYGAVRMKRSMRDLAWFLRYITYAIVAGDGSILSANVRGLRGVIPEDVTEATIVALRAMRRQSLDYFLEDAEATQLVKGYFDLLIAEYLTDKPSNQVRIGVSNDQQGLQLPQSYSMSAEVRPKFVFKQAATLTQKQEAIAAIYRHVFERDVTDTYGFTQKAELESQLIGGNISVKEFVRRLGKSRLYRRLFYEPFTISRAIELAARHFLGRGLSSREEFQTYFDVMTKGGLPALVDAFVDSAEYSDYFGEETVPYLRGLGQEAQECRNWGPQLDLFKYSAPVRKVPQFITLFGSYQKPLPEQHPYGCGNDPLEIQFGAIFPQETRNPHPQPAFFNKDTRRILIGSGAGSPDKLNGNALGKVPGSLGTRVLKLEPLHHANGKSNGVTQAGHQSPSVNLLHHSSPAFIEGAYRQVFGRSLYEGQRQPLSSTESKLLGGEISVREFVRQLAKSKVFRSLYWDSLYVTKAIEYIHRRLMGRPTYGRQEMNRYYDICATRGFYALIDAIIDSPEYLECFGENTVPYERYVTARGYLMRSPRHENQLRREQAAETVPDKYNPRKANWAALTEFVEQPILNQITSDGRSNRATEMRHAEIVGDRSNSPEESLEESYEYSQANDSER

ApcE2 (in FR-APC) = molecular target: T2, ApcE2 (in FR-APC) (Chroococcidiopsis thermalis, UniProt K9TUP3); settings: non-covalent (no Cys linkage); ZZZ,ssa; ApcF2 Thr76 H-bonds ring D; pH 6.5
T2 construct: gene Chro_1035; native purification from far-red-grown cells; intact bicylindrical FR-APC; ApcE2 in second (alpha-beta)3 trimer
T2 sequence (K9TUP3 1-780): T1 sequence (K9TUP3 1-780 partner)
T2 sequence (K9TY40 1-169 partner): T1 sequence (K9TY40 1-169)

ApcB2 (in FR-APC) = molecular target: T3, ApcB2 (in FR-APC) (Chroococcidiopsis thermalis, UniProt K9TVG8); settings: covalent; several sites, proximal (with ApcC) and distal (without ApcC); pH 6.5
T3 construct: gene Chro_1033; native purification from far-red-grown cells; intact bicylindrical FR-APC; ApcC contacts the proximal ApcB2 bilin only; with Far-red allophycocyanin alpha subunit ApcD5
T3 sequence (K9TVG8 1-161): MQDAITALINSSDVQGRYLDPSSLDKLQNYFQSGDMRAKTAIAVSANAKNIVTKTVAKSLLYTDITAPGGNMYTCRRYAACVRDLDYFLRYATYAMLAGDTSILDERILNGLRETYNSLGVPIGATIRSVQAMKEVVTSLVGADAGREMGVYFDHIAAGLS
T3 sequence (K9U510 1-67 partner): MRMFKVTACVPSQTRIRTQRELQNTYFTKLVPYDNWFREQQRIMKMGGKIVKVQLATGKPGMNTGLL

C/C=C1/C(=C/c2[nH]c(/C=C3N=C(/C=C4\NC(=O)C(CC)=C4C)C(C)=C\3CCC(=O)O)c(CCC(=O)O)c2C)NC(=O)[C@@H]1C [phycocyanobilin]
cryo-EM structure, 2.51 Å (ApcF2 (in FR-APC)): in ApcF2 the pigment is in ZZZ,ssa conformation
cryo-EM structure, 2.51 Å (ApcE2 (in FR-APC)): the bilin pigments in ApcE2 and ApcF2 are non-covalently bound
cryo-EM structure, 2.51 Å (ApcB2 (in FR-APC)): ApcB2 is represented in green while phycocyanobilin is represented in blue
